Measured values published in US11739098B2 (BRISTOL-MYERS SQUIBB COMPANY, priority 2017, dated 2023).

Assays:
Type in all cases: cell-based
human TLR7 = biological target: T1, human TLR7 (Homo sapiens, UniProt Q9NYK1); test: TLR7 inhibition reporter assay (HEK-Blue cells, SEAP reporter, gardiquimod stimulation); details: HEK-Blue cells overexpressing human TLR7, SEAP reporter, gardiquimod 7.5 μM
T1 construct: host or cells: HEK-Blue cells (HEK293-derived reporter line)
T1 sequence (Q9NYK1 27-1049): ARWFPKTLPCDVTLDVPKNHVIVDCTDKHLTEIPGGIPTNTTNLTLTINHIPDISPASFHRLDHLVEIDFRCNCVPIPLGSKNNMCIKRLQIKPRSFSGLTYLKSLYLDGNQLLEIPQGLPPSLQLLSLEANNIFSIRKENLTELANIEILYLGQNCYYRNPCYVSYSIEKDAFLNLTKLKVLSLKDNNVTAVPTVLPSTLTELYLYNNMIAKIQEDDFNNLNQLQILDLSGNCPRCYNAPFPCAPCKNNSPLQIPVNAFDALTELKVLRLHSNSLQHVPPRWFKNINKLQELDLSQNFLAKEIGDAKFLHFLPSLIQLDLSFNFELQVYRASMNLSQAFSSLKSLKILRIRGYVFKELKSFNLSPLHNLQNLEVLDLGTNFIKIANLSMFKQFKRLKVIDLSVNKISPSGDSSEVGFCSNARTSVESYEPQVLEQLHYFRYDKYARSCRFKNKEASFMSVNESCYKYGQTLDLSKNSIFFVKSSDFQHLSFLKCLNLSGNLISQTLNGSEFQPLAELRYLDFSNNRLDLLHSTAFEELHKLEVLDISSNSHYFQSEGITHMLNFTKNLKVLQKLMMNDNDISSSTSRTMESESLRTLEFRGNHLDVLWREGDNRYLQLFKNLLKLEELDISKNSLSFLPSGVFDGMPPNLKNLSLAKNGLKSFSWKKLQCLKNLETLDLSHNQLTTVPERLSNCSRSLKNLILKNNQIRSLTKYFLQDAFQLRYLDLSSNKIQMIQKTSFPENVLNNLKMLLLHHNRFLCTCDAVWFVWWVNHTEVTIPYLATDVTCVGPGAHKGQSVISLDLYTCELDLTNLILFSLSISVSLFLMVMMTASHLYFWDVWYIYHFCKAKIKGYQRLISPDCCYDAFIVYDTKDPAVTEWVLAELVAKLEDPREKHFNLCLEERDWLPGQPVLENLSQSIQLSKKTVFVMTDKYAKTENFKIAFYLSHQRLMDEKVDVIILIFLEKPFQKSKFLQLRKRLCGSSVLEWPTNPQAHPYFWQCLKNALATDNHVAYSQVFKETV
Method in brief: (§1)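 HEK-Blue cells overexpressing the receptor, with NF-κB/AP-1-driven SEAP, were pre-treated 30 min at room temperature with compound (0.05 nM–50 μM), then stimulated with gardiquimod 7.5 μM (TLR7), R848 15.9 μM (TLR8) or ODN2006 5 nM (TLR9). SEAP was read after 22 h at 37 °C as percent inhibition.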

human TLR8 = biological target: T2, human TLR8 (Homo sapiens, UniProt Q9NR97); test: TLR8 inhibition reporter assay (HEK-Blue cells, SEAP reporter, R848 stimulation); details: HEK-Blue cells overexpressing human TLR8, SEAP reporter, R848 15.9 μM
T2 construct: host or cells: HEK-Blue cells (HEK293-derived reporter line)
T2 sequence (Q9NR97 27-1041): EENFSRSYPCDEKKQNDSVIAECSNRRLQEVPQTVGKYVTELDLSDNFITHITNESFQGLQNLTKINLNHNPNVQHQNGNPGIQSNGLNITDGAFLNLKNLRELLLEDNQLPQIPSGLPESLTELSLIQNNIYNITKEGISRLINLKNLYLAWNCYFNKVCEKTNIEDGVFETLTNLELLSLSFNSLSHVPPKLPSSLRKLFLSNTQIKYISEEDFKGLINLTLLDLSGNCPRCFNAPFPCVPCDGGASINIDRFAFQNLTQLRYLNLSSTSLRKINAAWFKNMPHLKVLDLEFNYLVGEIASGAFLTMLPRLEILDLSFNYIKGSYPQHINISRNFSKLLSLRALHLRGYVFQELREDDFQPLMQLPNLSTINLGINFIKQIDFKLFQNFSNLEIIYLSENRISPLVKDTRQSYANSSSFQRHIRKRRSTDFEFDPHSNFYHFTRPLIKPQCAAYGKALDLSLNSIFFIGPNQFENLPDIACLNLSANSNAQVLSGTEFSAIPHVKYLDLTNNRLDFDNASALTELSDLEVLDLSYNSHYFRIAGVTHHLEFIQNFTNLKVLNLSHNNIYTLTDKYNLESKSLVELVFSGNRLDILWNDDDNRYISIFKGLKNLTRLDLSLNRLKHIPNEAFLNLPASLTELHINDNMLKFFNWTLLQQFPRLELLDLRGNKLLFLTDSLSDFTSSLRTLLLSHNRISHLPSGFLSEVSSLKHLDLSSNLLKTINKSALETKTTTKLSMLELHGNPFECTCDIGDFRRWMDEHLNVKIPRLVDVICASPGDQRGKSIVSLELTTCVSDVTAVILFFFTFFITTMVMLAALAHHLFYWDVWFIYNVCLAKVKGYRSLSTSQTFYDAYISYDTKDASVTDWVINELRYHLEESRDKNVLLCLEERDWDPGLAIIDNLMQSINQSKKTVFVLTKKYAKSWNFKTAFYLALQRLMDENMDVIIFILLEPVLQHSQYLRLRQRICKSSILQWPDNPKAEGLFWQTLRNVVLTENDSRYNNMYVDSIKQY
Method in brief: as §1

human TLR9 = biological target: T3, human TLR9 (Homo sapiens, UniProt Q9NR96); test: TLR9 inhibition reporter assay (HEK-Blue cells, SEAP reporter, ODN2006 stimulation); details: HEK-Blue cells overexpressing human TLR9, SEAP reporter, ODN2006 5 nM
T3 construct: host or cells: HEK-Blue cells (HEK293-derived reporter line)
T3 sequence (Q9NR96 26-1032): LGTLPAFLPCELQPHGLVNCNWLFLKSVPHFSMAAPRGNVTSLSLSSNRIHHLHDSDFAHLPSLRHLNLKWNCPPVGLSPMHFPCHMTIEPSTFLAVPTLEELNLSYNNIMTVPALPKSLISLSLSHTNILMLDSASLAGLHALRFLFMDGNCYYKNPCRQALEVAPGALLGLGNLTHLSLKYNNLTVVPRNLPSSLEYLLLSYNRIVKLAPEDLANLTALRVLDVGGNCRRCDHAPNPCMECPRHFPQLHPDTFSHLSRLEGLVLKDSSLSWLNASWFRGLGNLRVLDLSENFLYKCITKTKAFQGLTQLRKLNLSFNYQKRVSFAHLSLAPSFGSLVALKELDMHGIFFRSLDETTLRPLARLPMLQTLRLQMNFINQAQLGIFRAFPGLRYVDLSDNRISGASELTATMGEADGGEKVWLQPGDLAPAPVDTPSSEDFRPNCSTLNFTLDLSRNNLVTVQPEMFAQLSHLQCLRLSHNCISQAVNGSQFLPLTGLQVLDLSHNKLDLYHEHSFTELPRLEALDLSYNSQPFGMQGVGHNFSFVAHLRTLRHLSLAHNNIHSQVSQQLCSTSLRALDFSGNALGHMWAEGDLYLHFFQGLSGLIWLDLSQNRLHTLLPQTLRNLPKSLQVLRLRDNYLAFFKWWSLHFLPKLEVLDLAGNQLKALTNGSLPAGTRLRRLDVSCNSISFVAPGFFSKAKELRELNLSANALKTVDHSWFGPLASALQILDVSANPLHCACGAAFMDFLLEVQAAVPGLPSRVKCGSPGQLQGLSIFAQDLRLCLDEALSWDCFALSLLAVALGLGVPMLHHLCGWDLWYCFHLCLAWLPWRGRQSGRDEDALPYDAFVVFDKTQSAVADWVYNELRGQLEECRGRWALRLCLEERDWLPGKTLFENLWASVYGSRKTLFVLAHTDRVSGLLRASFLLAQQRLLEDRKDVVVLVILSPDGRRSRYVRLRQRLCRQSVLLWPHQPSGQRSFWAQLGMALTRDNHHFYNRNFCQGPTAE
Method in brief: as §1

| SMILES | IC50 (human TLR7) | IC50 (human TLR8) | IC50 (human TLR9) |
| --- | --- | --- | --- |
| CCCN1CCC(c2ccc3[nH]c(-c4cc(C)c5ncn(C)c5c4)c(C(C)C)c3c2)CC1 [Example 954, 6-(3-isopropyl-5-(1-propylpiperidin-4-yl)-1H-indol-2-yl)-1,4-dimethyl-1H-benzo[d]imidazole] | < 100 nM | < 100 nM | 100 to 1000 nM |
| CC(C)c1c(-c2c[nH]c3cccnc23)[nH]c2ccc(C3CCNCC3)cc12 [Example 19, 3-(3-isopropyl-5-(piperidin-4-yl)-1H-indol-2-yl)-1H-pyrrolo[3,2-b]pyridine] | 100 to 1000 nM | 1000 to 50000 nM | 100 to 1000 nM |
| COC(=O)C1CC(N2CCC(c3ccc4[nH]c(-c5ccnc6[nH]ncc56)c(C(C)C)c4c3)CC2)CCN1 (stereo not drawn) [Example 831, methyl 4-(3-isopropyl-2-(1H-pyrazolo[3,4-b]pyridin-4-yl)-1H-indol-5-yl)-[1,4′-bipiperidine]-2′-carboxylate] | < 100 nM | < 100 nM | 100 to 1000 nM |
| Cc1cn2c(C)c(-c3[nH]c4ccc(C5CCNCC5)cc4c3C(C)C)ccc2n1 [Example 123, 6-(3-isopropyl-5-(piperidin-4-yl)-1H-indol-2-yl)-2,5-dimethylimidazo[1,2-a]pyridine] | < 100 nM | 100 to 1000 nM | 100 to 1000 nM |
| CC(C)c1c(-c2cc(CO)c3nnnn3c2)[nH]c2ccc(C3CCNCC3)cc12 [Example 71, (6-(3-isopropyl-5-(piperidin-4-yl)-1H-indol-2-yl)tetrazolo[1,5-a]pyridin-8-yl)methanol] | < 100 nM | 100 to 1000 nM | 1000 to 50000 nM |
| CCc1c(-c2ccnc3[nH]ccc23)[nH]c2cc(C)c(C3CCN(C4CCN(C(C)C)CC4)CC3)cc12 [Example 840, 4-(3-ethyl-5-(1′-isopropyl-[1,4′-bipiperidin]-4-yl)-6-methyl-1H-indol-2-yl)-1H-pyrrolo[2,3-b]pyridine] | 1000 to 50000 nM | 1000 to 50000 nM | 100 to 1000 nM |
| Cc1cc(-c2[nH]c3ccc(C4CCN(CC(=O)N(C)C)CC4)cc3c2C(C)C)cc2[nH]cnc12 [Example 287, 2-(4-(3-isopropyl-2-(4-methyl-1H-benzo[d]imidazol-6-yl)-1H-indol-5-yl)piperidin-1-yl)-N,N-dimethylacetamide] | 1000 to 50000 nM | 100 to 1000 nM | 1000 to 50000 nM |
| Cc1nc2cc(-c3[nH]c4ccc(C5CCNCC5)cc4c3C(C)C)cc(C)c2o1 [Example 92, 5-(3-isopropyl-5-(piperidin-4-yl)-1H-indol-2-yl)-2,7-dimethylbenzo[d]oxazole] | < 100 nM | 100 to 1000 nM | 1000 to 50000 nM |
| CC(=O)N1CCC(c2ccc3[nH]c(-c4ccnc5[nH]ncc45)c(C(C)C)c3c2)CC1 [Example 592, 1-(4-(3-isopropyl-2-(1H-pyrazolo[3,4-b]pyridin-4-yl)-1H-indol-5-yl)piperidin-1-yl)ethan-1-one] | 100 to 1000 nM | 100 to 1000 nM | > 50000 nM |
| CNC(=O)CN1CCC(c2ccc3[nH]c(-c4ccc5cnnn5c4)c(C(C)C)c3c2)CC1 [Example 300, 2-(4-(2-([1,2,3]triazolo[1,5-a]pyridin-6-yl)-3-isopropyl-1H-indol-5-yl)piperidin-1-yl)-N-methylacetamide] | 100 to 1000 nM | 100 to 1000 nM | 1000 to 50000 nM |
| CC(C)c1c(-c2ccn3cnnc3c2)[nH]c2ccc(C3CCN(C4COC4)CC3)cc12 [Example 736, 7-(3-isopropyl-5-(1-(oxetan-3-yl)piperidin-4-yl)-1H-indol-2-yl)-[1,2,4]triazolo[4,3-a]pyridine] | < 100 nM | 100 to 1000 nM | 1000 to 50000 nM |
| CC(C)c1c(-c2nc3ccnn3cc2F)[nH]c2ccc(C3CCNCC3)cc12 [Example 147, 6-fluoro-5-(3-isopropyl-5-(piperidin-4-yl)-1H-indol-2-yl)pyrazolo[1,5-a]pyrimidine] | < 100 nM | < 100 nM | 1000 to 50000 nM |
| CC(C)c1c(-c2ccnc3[nH]ncc23)[nH]c2ccc(C3CCN(CCN4CCCCCC4)CC3)cc12 [Example 660, 4-(5-(1-(2-(azepan-1-yl)ethyl)piperidin-4-yl)-3-isopropyl-1H-indol-2-yl)-1H-pyrazolo[3,4-b]pyridine] | < 100 nM | < 100 nM | 100 to 1000 nM |
| CC(C)c1c(-c2cnc3c(cnn3C)c2)[nH]c2ccc(C3CCNCC3)cc12 [Example 96, 5-(3-isopropyl-5-(piperidin-4-yl)-1H-indol-2-yl)-1-methyl-1H-pyrazolo[3,4-b]pyridine] | < 100 nM | < 100 nM | 100 to 1000 nM |
| Cc1c(-c2[nH]c3ccc(C4CCN(CCS(C)(=O)=O)CC4)cc3c2C(C)C)cn2nnnc2c1C [Example 786, 6-(3-isopropyl-5-(1-(2-(methylsulfonyl)ethyl)piperidin-4-yl)-1H-indol-2-yl)-7,8-dimethyltetrazolo[1,5-a]pyridine] | < 100 nM | < 100 nM | 1000 to 50000 nM |
